In paper PMC10780633, “Novel Multi-Target Agents Based on the Privileged Structure of 4-Hydroxy-2-quinolinone” (Molecules, 2023):

Tests used:
[1] = parameters: method as in PMID 16955399, PMID 26834836; conditions: more potent than linomide; cited from earlier work
[2] = Interaction with the stable free radical DPPH (reducing activity); conditions: for Interaction with the Free Radical DPPH (%): 100 μM
Experimental: (§1) In this work, the carboxamides 3a–3u, the quinolinone–cinnamic or benzoic acid hybrids 11a–11g and the reverse amides 16a–16c were tested for their antioxidant activity via five in vitro techniques; (i) the interaction with the stable free radical 2,2-diphenyl-1-picrylhydrazyl (DPPH); (ii) the inhibition of lipid peroxidation; (iii) the hydroxyl radical scavenging ability; (iv) the 2,2-azino-bis(3-ethylbenzothiazoline-6-sulfonic acid (ABTS) radical cation (ABTS·^+) reduction; and (v) the superoxide anion radical scavenging ability.

[3] = ABTS radical cation decolorization assay; conditions: 0.1 mM
Experimental: as §1
The experimental technique used in this section was performed according to the methods of Pontiki et al.. The results were compared to the appropriate standard inhibitor Trolox.

[4] = Non-enzymatic superoxide anion radical scavenging assay (PMS); conditions: 0.1 mM
Experimental: as §1
The experimental technique used for this assay was performed according to our previous works. Caffeic acid was used as an appropriate standard.

[5] = Inhibition of lipid peroxidation of linoleic acid induced by AAPH radical; conditions: 100 μM
Experimental: as §1
The assay for the determination of the inhibition of linoleic acid peroxidation induced by the free radical initiator […](2-amidinopropane) dihydrochloride (AAPH) was performed according to the methods of Hadjipavlou-Litina et al., which we have also used in our previous works.

soybean lipoxygenase = molecular target: T1, soybean lipoxygenase (Glycine max, UniProt P08170); test: Soybean LOX inhibition in vitro (UV absorbance-based assay); assay type: biochemical
T1 construct: purchased Sigma Chemical, Co. (St. Louis, MO, USA)
T1 sequence (P08170 1-839): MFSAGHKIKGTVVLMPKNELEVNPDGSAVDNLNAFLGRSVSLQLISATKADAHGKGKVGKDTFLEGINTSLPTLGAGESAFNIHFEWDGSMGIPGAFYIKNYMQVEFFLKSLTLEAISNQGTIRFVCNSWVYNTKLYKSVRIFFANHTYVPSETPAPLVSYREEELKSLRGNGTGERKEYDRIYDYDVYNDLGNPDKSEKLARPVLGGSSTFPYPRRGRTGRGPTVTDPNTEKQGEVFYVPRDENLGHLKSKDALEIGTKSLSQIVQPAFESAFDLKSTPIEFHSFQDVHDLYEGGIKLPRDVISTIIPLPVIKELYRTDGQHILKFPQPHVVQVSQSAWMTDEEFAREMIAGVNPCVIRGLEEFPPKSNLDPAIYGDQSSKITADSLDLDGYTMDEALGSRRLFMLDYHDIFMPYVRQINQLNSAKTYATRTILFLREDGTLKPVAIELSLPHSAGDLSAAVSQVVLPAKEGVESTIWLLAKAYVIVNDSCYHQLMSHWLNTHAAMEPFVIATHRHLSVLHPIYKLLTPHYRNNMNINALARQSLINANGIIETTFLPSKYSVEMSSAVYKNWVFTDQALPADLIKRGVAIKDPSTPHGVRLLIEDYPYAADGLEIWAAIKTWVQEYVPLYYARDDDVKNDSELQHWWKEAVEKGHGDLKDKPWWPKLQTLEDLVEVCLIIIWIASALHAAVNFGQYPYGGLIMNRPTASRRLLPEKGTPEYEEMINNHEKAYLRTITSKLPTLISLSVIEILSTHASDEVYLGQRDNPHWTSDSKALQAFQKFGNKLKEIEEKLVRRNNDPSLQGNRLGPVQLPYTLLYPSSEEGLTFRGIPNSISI
Experimental: For this study, the UV absorbance-based soybean LOX assay was used.
The assay for the determination of the inhibition of soybean LOX was performed according to the methods of Hadjipavlou-Litina et al., which we have also used in our previous works.

[6] = Competition with DMSO for hydroxyl radicals; conditions: 0.1 mM
Experimental: as §1
The assay was performed according to the methods of Pontiki et al. Trolox was used as a reference compound [78].

SMILES | Anti-tumor potency relative to linomide [1] | melting point | Interaction with the Free Radical DPPH (%) ([2]; 20 min) | Interaction with the Free Radical DPPH (%) ([2]; 60 min) | ABTS% (ABTS radical cation decolorization) [3] | PMS% (superoxide anion radical scavenging) [4] | Inhibition of Lipid Peroxidation of Linoleic Acid Induced by AAPH Radical (%) [5] | inhibition at 100 µM (soybean lipoxygenase; 0.1 mM) | OH% (hydroxyl radical scavenging) [6] | DPPH radical scavenging activity, time not specified ([2]; reaction time not given) | Inhibition of Soybean Lipoxygenase % at 0.1 mM (soybean lipoxygenase; 0.1 mM) | IC50 (soybean lipoxygenase)
COc1cccc2c1c(O)c(C(=O)N(C)c1ccc(C(F)(F)F)cc1)c(=O)n2C [Tasquinimod] | 30–60 times |  |  |  |  |  |  |  |  |  |  | 
CCn1c(=O)c(C(=O)NCCN)c(O)c2ccccc21 [Compound 7, N-(2-Aminoethyl)-1-ethyl-4-hydroxy-2-oxo-1,2-dihydroquinoline-3-carboxamide] |  | 161 °C |  |  |  |  |  |  |  |  |  | 
CCCNC(=O)c1c(O)c2ccccc2n(-c2ccccc2)c1=O [Compound 3b, 4-hydroxy-2-oxo-1-phenyl-N-propyl-1,2-dihydroquinoline-3-carboxamide] |  |  | 2.7% | 11.8% | 35.5% | 84.6% | 100% | 45% | 40.8% |  |  | 
Cn1c(=O)c(C(=O)Nc2ccc(F)cc2)c(O)c2ccccc21 [Compound 3m, N-(4-fluorophenyl)-4-hydroxy-1-methyl-2-oxo-1,2-dihydroquinoline-3-carboxamide] |  |  | 3.1% | 1.2% | 12.4% | no | 11.3% | 15% | 94.0% | inactive |  | 
O=C(NCCO)c1c(O)c2ccccc2n(-c2ccccc2)c1=O [Compound 3d, 4-hydroxy-N-(2-hydroxyethyl)-2-oxo-1-phenyl-1,2-dihydroquinoline-3-carboxamide] |  |  | 15.9% | 20.8% | no activity and no | 66.6% | 32.8% |  | no |  | inactive and no | 
Cn1c(=O)c(C(=O)NCCO)c(O)c2ccccc21 [Compound 3c, 4-hydroxy-N-(2-hydroxyethyl)-1-methyl-2-oxo-1,2-dihydroquinoline-3-carboxamide] |  |  | 3.3% | 10.7% | 25.6% | 76.9% | 100% |  | 39.8% |  |  | 52 µM
